Key:
[1] = system: IMR90-4 iPSC-derived podocytes; experiment: Apoptosis assay: dead cells by trypan blue after TGF-β1; format: cell-based, human; details: 5 or 50 ng/mL, 24 hr, day 16 podocytes; control 2%
Description: (§1) At day 16, cells were treated with 500 ng/mL Ang II for 6 hr and phalloidin staining was used to assess changes in cytoskeletal structure. White arrows indicate the cells with peripheral F-actin. (B) More than 200 cells over 15 images were analyzed and the percentage of cells with peripherally-organized actin was calculated for control and Ang II-treated cells. Data are presented as mean percentage±SEM of three independent experiments over 15 images. Scale bars, 100 μm. (C) At day 16, cells were treated with 5 ng/mL and 50 ng/mL TGF-β1 for 24 hr. Detached cells were collected from the medium and combined with Accutase®-dissociated cells from the substrate. Cells were treated with trypan blue and the numbers of cells incorporating and excluding trypan blue were counted on a hemocytometer. Percentage of dead cells was calculated as the number of cells that incorporated trypan blue divided by the total cell number. […]
(§2) Podocytes uptake albumin via endocytosis and degrade albumin in lysosomes^52,53. We assessed the ability of day 16 iPSC-derived podocytes to endocytose Alexa Fluor 555-labeled albumin in a temperature-dependent manner. […]
(§3) Differentiated podocytes at day 16 were treated with 500 ng/ml Ang II for 6 hr or […] TGF-β1 for 24 hr. […] The cells treated with TGF-β1 after 24 hr were assessed by counting dead cells with trypan blue exclusion.

IMR90-4 hPSCs = experiment: WT1 expression at day 6 by Western blot after treatment with BMP7, RA, FGF2 from day 2 to day 6; format: cell-based, human; details: treatment day 2 to day 6 in PM2
Description: FIGS. 3A-3L Wnt signaling activation alone is sufficient to differentiate hPSCs into nephron progenitor cells. (A) Schematic of podocyte differentiation factor identification. Singularized IMR90-4 hPSCs were seeded on 12-well plates coated with Matrigel®, Synthemax® or vitronectin and expanded for 3 days in mTeSR®1. Podocyte differentiation was initiated with treatment using 6 μM CHIR (CHIR99021) for 48 h in PM1 followed by treatment with different combinations of 0.1 μM or 1 μM RA, 50 ng/mL BMP7 and 50 ng/mL FGF2 from day 2 to day 6 in PM2. (B) Cells at day 6 were assessed by Western blot for the expression level of WT1. (C) Expression level was quantified via Image J. The expression was first normalized to β-actin and then compared to WT1 expression in the absence of FGF2, RA and BMP7. (D, E) Expression of phosphorylated SMAD was assessed by Western blot after cells were treated with dorsomorphin (0 μM to 10 μM) from day 1 to day 3 or from day 3 to day 4. (F, G) Expression of BMP7 at day 1 and day 2 was verified by immunofluorescence and Western blot of cell lysate. (H, I) Cells were differentiated in the presence or absence of 1 μM dorsomorphin treatment from day 1 to day 3 and at day 16 were assessed for expression of PAX2 and WT1 by flow cytometry. Data were collected from three independent replicates and are plotted as mean±SEM. *p<0.05. ***p<0.001. […]

[2] = system: BMP-induced SMAD1/5/8 phosphorylation; experiment: Phosphorylated SMAD Western blot after dorsomorphin treatment of differentiating cells; format: cell-based, human; details: added from days 1-3 of differentiation; P-SMAD at day 3; 0 to 10 μM tested
Description: Singularized IMR90-4 hPSCs were seeded on 12-well plates coated with Matrigel®, Synthemax® or vitronectin and expanded for 3 days in mTeSR®1. Podocyte differentiation was initiated with treatment using 6 μM CHIR (CHIR99021) for 48 h in PM1 followed by treatment with different combinations of 0.1 μM or 1 μM RA, 50 ng/mL BMP7 and 50 ng/mL FGF2 from day 2 to day 6 in PM2. […] (D, E) Expression of phosphorylated SMAD was assessed by Western blot after cells were treated with dorsomorphin (0 μM to 10 μM) from day 1 to day 3 or from day 3 to day 4. […] Data were collected from three independent replicates and are plotted as mean±SEM. *p<0.05. ***p<0.001. […] Cells were dissociated with Accutase® and rinsed with PBS twice before being lysed with RIPA (ROCKLAND) in the presence of 1% Halt Protease and Phosphatase Inhibitor Cocktail (Pierce). Protein concentration was determined by a BCA assay kit (Thermo Fisher) according to manufacturer's instructions. Samples containing 30 μg of total protein were loaded onto pre-cast 10% Tris-Glycine SDS/PAGE gels (Invitrogen) under denaturing conditions and transferred to a nitrocellulose membrane. After blocking with 5% non-fat milk in TBST, the membrane was incubated with primary antibody (Table 1) overnight at 4° C. […]

[3] = system: IMR90-4 iPSC-derived podocytes; experiment: Contractility assay: actin reorganization (phalloidin staining) after Ang II; format: cell-based, human; details: 500 ng/mL, 6 hr, day 16 podocytes; control about 20%
Description: as §1, §2, §3

hPSCs [4] = experiment: Primitive streak induction of hPSCs by Wnt activation (brachyury immunofluorescence / flow cytometry); format: cell-based, human
Description: Thus, as a first step toward differentiating hPSCs into podocytes, induced hPSCs (iPSCs) were seeded on a Matrigel®-coated surface at a density of ˜2×10^4 cells/cm^2 in mTeSR®1. After 3 days of expansion to a density of 6×10^4 cells/cm^2, the hPSCs were treated with 6 μM CHIR99201 for 48 hr in serum-free and albumin-free podocyte medium 1 (PM1: DMEM/F12, 1% MEM-NEAA, 0.5% GlutaMAX, 0.1 mM β-mercaptoethanol) (FIG. 1A). […] After 48 hr CHIR99201 treatment in PM1, the medium was switched to serum-free podocyte medium 2 (PM2: human endothelial serum-free medium (hESFM), 2% B-27®) and cultured to day 16. The kinetics of primitive streak induction were assessed by immunofluorescence and qRT-PCR. […] At day 0, differentiation was initiated by treating cells with 6 μM CHIR99021 (Selleckchem) in podocyte medium 1 (PM1): DMEM/Ham's F12 (Thermo Fisher), 100×MEM nonessential amino acids (Thermo Fisher), 200× GlutaMAX (Thermo Fisher), and 0.1 mM β-mercaptoethanol (Sigma) for 2 days. After 48 hr, medium was changed to podocyte medium 2 (PM2): human Endothelial Serum-Free Medium (hESFM) (Thermo Fisher) supplemented with 50× B-27®. […] Cells were stained with primary and secondary antibodies diluted in 0.5% BSA plus 0.1% Triton-X 100 as described.^34 Data were collected on a FACS Caliber flow cytometer (Beckton Dickinson) and analyzed using FlowJo®. […]

hPSCs [5] = details: 6 μM, undifferentiated hPSCs, serum-free and albumin-free medium, after 24 hours; cited from earlier work

In the case of “TGF-β1: induces cell death in primary and immortalized podocytes”, the “percentage of dead cells (trypan blue uptake)” value [1] is reported as 15%.

In the case of “FGF2: fibroblast growth factor, exogenous growth factor”, the “effect on WT1 expression in the hPSC-derived podocytes” value (IMR90-4 hPSCs) is reported as “diminished”.

For c1cc(-c2cnn3cc(-c4ccc(OCCN5CCCCC5)cc4)cnc23)ccn1 [dorsomorphin], the “dorsomorphin concentration at which SMAD phosphorylation was completely inhibited” value [2] was “higher than 5 μM”.

For “angiotensin II [Ang II, induces podocyte damage by altering cytoskeletal structure and inducing contractility]”, the “percentage of cells with peripheral actin” value [3] was “Over 50%”.

In the case of Cc1c[nH]c(-c2cnc(NCCNc3ccc(C#N)cn3)nc2-c2ccc(Cl)cc2Cl)n1 [CHIR99021], the “ability alone to direct hPSC lines into intermediate mesoderm, nephron progenitors and mature podocytes” value (hPSCs [4]; 6 μM alone, podocyte permissive medium, three different hPSC lines) is listed as “sufficient”, the “cells expressing the primitive streak marker brachyury (positive population)” value (hPSCs [4]; 6 μM, 24 hr treatment, PM1, iPSCs on Matrigel) is listed as about 100% and the “population expressing primitive streak markers (prior study)” value (hPSCs [5]) is listed as “uniform population of cells expressing primitive streak markers”.

B1: BMP7: bone morphogenetic protein, exogenous growth factor (protein, UniProt P18075 293-431, looked up)
Bone morphogenetic protein 7: STGSKQRSQNRSKTPKNQEALRMANVAENSSSDQRQACKKHELYVSFRDLGWQDWIIAPEGYAAYYCEGECAFPLNSYMNATNHAIVQTLVHFINPETVPKPCCAPTQLNAISVLYFDDSSNVILKKYRNMVVRACGCH
With B1 the “effect on WT1 expression in the hPSC-derived podocytes” value (IMR90-4 hPSCs) was “diminished”.

— patent US12024721B2, “Method of differentiating human pluripotent stem cells to podocytes” (Wisconsin Alumni Research Foundation, priority 2017, dated 2024)
